Values quoted from earlier work, collected in patent US20230174671A1, “COMPOSITIONS AND METHODS FOR TREATING VIRAL INFECTIONS” (BIOVISTA, INC., priority 2020, published 2023).
Where a name gives a salt, the structure may show the parent alone.

Experiments:
SARS-CoV = conditions: HeLa cells expressing TMPRSS2; Kawase et al, 2012
[1] = system: human coronavirus NL63 (HCoV-NL63); conditions: HeLa cells expressing TMPRSS2; Kawase et al, 2012

## CN(C)C(=O)COC(=O)Cc1ccc(OC(=O)c2ccc(NC(=N)N)cc2)cc1 [camostat mesylate]
SARS-CoV
  block of infection by SARS-CoV: partially block infection
[1]
  block of infection by human coronavirus NL63 (HCoV-NL63): partially block infection
